Data set [1] has as its system pancreatic cancer PDX tumor (PDX14244) tissues. The data set can be described thus: Ex vivo culture of pancreatic cancer PDX tumor tissue. It counts as cell-based, human. As to conditions: 7 days. The text has this:
Pancreatic cancer patient-derived xenograft (PDX) tumor (PDX14244) in vitro culture and studies: PDX14244 tumors were collected from SCID mice, and the isolated tumors were maintained in PBS solution. Then cut the fresh tumor tissues into many small pieces (e.g., 2×2×2 mm) and the left tumors were frozen for other use. The small pieces of tumor tissues were washed twice in PBS and then added onto the stiff gel prepared at the ratio of gel: PBS=1:1 in the 24-well plate (2-3 pieces per well). […] On day 3, replace the old medium content with freshly prepared same medium content. On day 7, the cultured PDX14244 tumor tissues were taken out and representative images were taken under microscopes, and the tumor tissues were transferred into a fresh 24-well plate and immediately fixed in 10% neutral buffered formalin (NBF) for 24 hours ad then replaced NBF with 70% ethanol for 1-4 days for paraffin embedding to make block cassettes for histology analysis. Tissue blocks were cut and H&E staining for tumor tissue stroma ECM stiffness (desmoplasia) observation.

The target of another data set is DDX5 (Homo sapiens, UniProt P17844). The data set can be described thus: FL118 affinity column purification and mass spectrometry. The data set is classed as binding. As to conditions: SW620 protein lysates. How it is done: The process includes many experimental steps as described below.
Sequence of DDX5 (P17844 whole entry): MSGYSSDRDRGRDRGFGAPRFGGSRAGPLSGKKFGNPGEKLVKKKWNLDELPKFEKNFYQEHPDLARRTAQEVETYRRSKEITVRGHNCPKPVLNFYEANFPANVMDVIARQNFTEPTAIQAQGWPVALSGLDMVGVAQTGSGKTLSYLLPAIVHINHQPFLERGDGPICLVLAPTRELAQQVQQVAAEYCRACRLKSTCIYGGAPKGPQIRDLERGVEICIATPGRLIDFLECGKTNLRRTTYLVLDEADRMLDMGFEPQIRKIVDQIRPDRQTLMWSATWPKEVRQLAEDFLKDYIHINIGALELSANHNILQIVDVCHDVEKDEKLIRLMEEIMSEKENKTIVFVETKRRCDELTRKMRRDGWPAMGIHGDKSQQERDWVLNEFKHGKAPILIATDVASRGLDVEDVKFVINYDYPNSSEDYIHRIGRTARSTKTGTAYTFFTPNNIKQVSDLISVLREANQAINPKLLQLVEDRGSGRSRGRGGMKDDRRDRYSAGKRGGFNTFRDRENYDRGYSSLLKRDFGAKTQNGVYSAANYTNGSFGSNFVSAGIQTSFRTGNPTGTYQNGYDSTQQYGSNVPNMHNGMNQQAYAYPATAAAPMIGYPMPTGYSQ
Affinity purification column setup: (i) transfer the control resin slurry and the FL118-coupled resin slurry into two columns, respectively; (ii) allow resin to settle and then open the bottom cap to allow the solution to flow out to drain all the reaction solution; (iii) washing the column with 2 ml CB, and then with 2 ml ultrapure water/DMSO solution (75:25). […] Then additional 3×4 ml tris washing buffer (0.1 M Tris, pH 8.0).
After extensive washing with washing buffer, the proteins binding on the column were eluted with 8M urea buffers.
After digestion, the tryptic products were extracted twice and dried; the dried peptides were then reconstituted in 10 μL of 2% (v/v) formic acid for analysis with Liquid Chromatography Tandem Mass Spectrometry (LC-ESI-MS/MS). LC-ESI-MS/MS analysis of peptides was performed using a nano-ACQUITY UPLC system (Waters Corporation, Milford, MA) coupled through a nano-spray ionization source to a Quadrupole-Time-of-Flight (Q-ToF) Premier mass spectrometer (Micromass, Waters Corporation). […] The criteria used to identify the proteins included ion scores equal to or greater than the threshold significant ion score ([…]), and similarity between the observed protein molecular mass from gel electrophoresis and the calculated molecular mass provided in the database. […]

Another data set addresses hERG (Homo sapiens, UniProt Q12809). The data set can be described thus: cell-based. The procedure: All cell suspensions, buffers, and test compound solutions were at room temperature during the experiment. Briefly, Chinese hamster ovary (CHO) cells stably transfected with hERG (cell line obtained from Cytomyx, UK) were seeded in each well of a PatchPlate™ positioned over a small hole at the bottom of each well to form an electrical seal. The resistance of each seal was measured via a common ground electrode in the intracellular compartment and individual electrodes placed into each of the upper wells. Electrical access to the cell was then achieved by circulating a perforating agent, amphotericin B, underneath the PatchPlate™. The hERG channels were activated by applying a depolarizing step to +40 mV for 5 s and then clamped at […] for 4 s to elicit the hERG tail current, before returning to […] for 0.3 s. […] Each concentration was tested in 4 replicate wells on the PatchPlate™.
All cell suspensions, buffers and test compound solutions were at room temperature during the experiment. (2) The cells used were Chinese hamster ovary (CHO) cells stably transfected with hERG (cell line obtained from Cytomyx, UK). A single cell suspension was prepared in extracellular solution (Dulbecco's phosphate buffered saline with calcium and magnesium pH 7.2) and aliquots added automatically to each well of a PatchPlate™. The cells were then positioned over a small hole at the bottom of each well by applying a vacuum beneath the plate to form an electrical seal. The vacuum was applied through a single compartment common to all wells which was filled with intracellular solution (buffered to pH 7.2 with HEPES). The resistance of each seal was measured via a common ground electrode in the intracellular compartment and individual electrodes placed into each of the upper wells. Electrical access to the cell was then achieved by circulating a perforating agent, amphotericin B, underneath the PatchPlate™. (3) The pre compound hERG current was then measured. […] The hERG channels were then activated by applying a depolarizing step to +40 mV for 5 sec and then clamped at […] for 4 sec to elicit the hERG tail current, before returning to […] for 0.3 sec. […] (5) The IonWorks™ HT instrument automatically added test compound dilutions to the upper wells of the PatchPlate™ from a 96 well microtitre plate. The test compound was left in contact with the cells for 300 sec before recording currents using the same voltage step protocol as in the pre compound scan. […] (6) Each concentration was tested in 4 replicate wells on the PatchPlate™ (maximum of 24 data points).
The percentage inhibition was calculated using the following equation: […]

Entries after “also recorded” stand apart in the source; their conditions may differ.

Sequence of hERG (Q12809 whole entry): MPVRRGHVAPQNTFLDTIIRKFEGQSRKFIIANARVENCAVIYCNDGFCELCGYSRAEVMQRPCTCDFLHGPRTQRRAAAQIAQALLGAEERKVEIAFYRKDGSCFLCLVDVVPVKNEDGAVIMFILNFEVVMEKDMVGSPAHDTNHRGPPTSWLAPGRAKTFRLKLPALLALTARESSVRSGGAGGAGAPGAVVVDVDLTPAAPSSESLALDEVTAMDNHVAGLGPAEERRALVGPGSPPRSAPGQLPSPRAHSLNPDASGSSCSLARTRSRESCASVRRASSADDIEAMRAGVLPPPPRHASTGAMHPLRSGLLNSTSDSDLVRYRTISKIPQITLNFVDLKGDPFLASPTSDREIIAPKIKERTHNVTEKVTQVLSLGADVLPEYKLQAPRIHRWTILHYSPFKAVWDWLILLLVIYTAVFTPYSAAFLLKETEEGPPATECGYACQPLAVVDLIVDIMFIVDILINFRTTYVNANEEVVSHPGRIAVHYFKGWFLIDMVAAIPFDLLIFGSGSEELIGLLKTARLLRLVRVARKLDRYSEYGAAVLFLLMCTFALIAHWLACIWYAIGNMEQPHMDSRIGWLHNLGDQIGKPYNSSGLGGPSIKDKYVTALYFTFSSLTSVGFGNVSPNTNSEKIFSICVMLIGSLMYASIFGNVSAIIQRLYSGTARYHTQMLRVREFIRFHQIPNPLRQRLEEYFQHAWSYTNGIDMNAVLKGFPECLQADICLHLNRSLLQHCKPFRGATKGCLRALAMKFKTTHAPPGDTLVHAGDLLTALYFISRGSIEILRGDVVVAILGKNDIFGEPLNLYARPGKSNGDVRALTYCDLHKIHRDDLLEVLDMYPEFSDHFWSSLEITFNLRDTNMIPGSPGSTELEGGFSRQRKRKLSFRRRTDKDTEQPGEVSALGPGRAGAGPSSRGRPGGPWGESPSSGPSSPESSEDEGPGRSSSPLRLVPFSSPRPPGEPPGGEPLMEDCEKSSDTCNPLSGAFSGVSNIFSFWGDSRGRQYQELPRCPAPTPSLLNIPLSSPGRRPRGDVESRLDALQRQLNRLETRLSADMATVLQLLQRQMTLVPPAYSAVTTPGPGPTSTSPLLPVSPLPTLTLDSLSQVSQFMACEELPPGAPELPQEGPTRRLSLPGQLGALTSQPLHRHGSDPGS

A word on the IC50: it is the midpoint of a concentration-inhibition curve. A higher IC50 goes with weaker potency in that assay. A word on the inhibition: it is the drop in the measured response relative to a control, in per cent. As for `CCC1(O)C(=O)OCc2c1cc1n(c2=O)Cc2cc3cc4c(cc3nc2-1)OCO4` (centres unmarked) [FL118], in data set [1], the “cell and stroma spreading from tissue edge” value was “effectively inhibit the pancreatic cancer cells and stroma spreading”; the “tumor stroma intensity (H&E)” value is “significantly tumor stroma intensity loose”. Further, the “binding to DDX5 (affinity purification, MS)” value on DDX5 was “physically binds”. The IC50 against hERG was over 1000 nM. Also, on hERG (CHO cells stably transfected with hERG, FL118 3-1000 nM), the “effect on hERG activity” value was “no inhibitory effects; also recorded: does not exhibit an inhibition of hERG activity”. Besides, on hERG (human, pH 7.2), the inhibition at 300 s, 0.003 µM was 14.8%; the inhibition at 300 s, 0.01 µM was found to be 18.7%; the inhibition at 300 s, 0.03 µM was found to be 5.6%; the inhibition at 300 s, 0.1 µM was -5.2%. In addition, at hERG (human, pH 7.2), the inhibition at 300 s, 0.3 µM is -2.9% and the inhibition at 300 s, 1 µM was 19.9%.

Values taken from US20250312469A1 (CANGET BIOTEKPHARMA, priority 2024, published 2025).
